# Measurements taken from patent EP0942911B1, “BENZOPYRANOPYRROLE AND BENZOPYRANOPYRIDINE ALPHA-1 ADRENERGIC COMPOUNDS” (Abbott Laboratories, priority 1996, dated 1998).
# Where a name gives a salt, the structure may show the parent alone.
# Tests used:
# α-1 Adrenoceptors = experiment: Functional antagonism in rat aorta (method not described); assay type: cell-based
# α-1B adrenoreceptor = target: T1, α-1B adrenoreceptor (Rattus norvegicus, UniProt P15823); experiment: cell-based; conditions: phenylephrine-induced contraction, Schild plot; for Kb: read-out: In Vitro Characterization (pA2) Rat Spleen (converted)
# T1 construct: from tissue; host or cells: rat spleen
# T1 sequence (P15823 1-515): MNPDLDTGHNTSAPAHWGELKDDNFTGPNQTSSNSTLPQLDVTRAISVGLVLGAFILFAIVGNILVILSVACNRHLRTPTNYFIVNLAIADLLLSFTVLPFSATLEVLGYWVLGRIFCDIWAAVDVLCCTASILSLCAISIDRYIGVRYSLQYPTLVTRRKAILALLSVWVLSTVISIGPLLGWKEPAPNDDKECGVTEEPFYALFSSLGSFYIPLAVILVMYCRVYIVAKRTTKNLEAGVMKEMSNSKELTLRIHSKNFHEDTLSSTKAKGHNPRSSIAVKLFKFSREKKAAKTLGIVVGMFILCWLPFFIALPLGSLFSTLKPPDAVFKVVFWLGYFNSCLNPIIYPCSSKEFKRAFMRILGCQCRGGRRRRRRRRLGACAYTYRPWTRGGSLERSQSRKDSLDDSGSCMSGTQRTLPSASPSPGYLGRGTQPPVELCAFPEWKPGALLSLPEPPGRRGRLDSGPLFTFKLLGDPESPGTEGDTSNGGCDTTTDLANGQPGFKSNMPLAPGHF
# Procedure, shortened: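 Phenylephrine dose-response curves for contraction were repeated against increasing test-agent concentrations. pA2 was derived by Schild plot [[…] vs log molarity of test agent].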
# α-1A adrenoreceptor = experiment: Functional antagonism: inhibition of PE-induced contraction of canine prostate strips (Schild plot); assay type: cell-based; conditions: phenylephrine-induced contraction
# Source text: Canine prostate strips were used in vitro as previously described (Hieble, J.P., Boyce, A.J. and Caine, M., Fed. Proc., 45: 2609-2614 (1986)), to determine antagonist potencies against phenylephrine-induced contractions.
# Functional assays indicative of pharmacologically defined α-1 adrenoreceptors were used to further characterize compounds. Inhibition of phenylephrine (PE)-induced contraction of canine prostate smooth muscle can be correlated with α-1A adrenoreceptor activation. […] For each of these models, agonist dose response curves were repeated against increasing concentrations of test agent to derive a Schild plot [log ([…]) against log (molarity of test agent)] to determine the pA2.
Molecule,In Vitro Characterization (pA2) Rat Aorta (α-1 Adrenoceptors),In Vitro Characterization (pA2) Rat Spleen (α-1B adrenoreceptor),In Vitro Characterization (pA2) Dog Prostate (α-1A adrenoreceptor),Kb (α-1B adrenoreceptor) [nM]
"3-[4-((3aR,9bR)-cis-9-Methoxy-1,2,3,3a,4,9b-hexahydro-[1]-benzopyrano[3,4-c]pyrrol-2-yl]butyl]-7-methoxy-pyrido[3',2':4,5]thieno[3,2-d]pyrimidine-2,4(1H,3H)-dione hydrochloride [Example 33]",9.15,7.83,,
"COc1cccc2c1[C@@H]1CCN(CCCCn3c(=O)[nH]c4c(sc5ncc(Cl)nc54)c3=O)C[C@H]1CO2 [Example 97, 3-[4-((4aS,10bR)-trans-10-Methoxy-1,3,4,4a,5,10b-hexahydro-2H-[1]-benzopyrano[3,4-c]pyrido-3-yl)butyl]-8-chloro-pyrazino[2',3':4,5]thieno[3,2-d]pyrimidine-2,4(1H,3H)-dione dihydrochloride]",,,8.6,17.4
"COc1cccc2c1[C@@H]1CN(CCCCn3c(=O)[nH]c4c(sc5ncc(Cl)nc54)c3=O)C[C@H]1CO2 [Example 13, 3-[4-((3aS,9bR)-trans-9-Methoxy-1,2,3,3a,4,9b-hexahydro-[1]-benzopyrano[3,4-c]pyrrol-2-yl)butyl]-8-chloro-pyrazino[2',3':4,5]thieno[3,2-d]pyrimidine-2,4(1H,3H)-dione hydrochloride]",,,9.91,4.07
"COc1cccc2c1[C@@H]1CN(CCCCn3c(=O)[nH]c4c(sc5ncc(-c6ccccc6)nc54)c3=O)C[C@H]1CO2 [Example 50, 3-[4-((3aS,9bR)-trans-9-Methoxy-1,2,3,3a,4,9b-hexahydro-[1]-benzopyrano[3,4-c]pyrrol-2-yl)butyl]-8-phenyl-pyrazino[2',3':4,5]thieno[3,2-d]pyrimidine-2,4(1H,3H)-dione hydrochloride]",,,8.45,316
